Data on 8 molecules can be found in PMC6382862 (Scientific Reports, 2019).

“And” between values parts separate entries of the source, which are not always exact repeats. Identical values can stand only once.

The test system of one assay is PCSK9. Also noted: method as in PMID 28825733. To be noted: lower affinity than Pep2-8, still detectable by SPR; cited from earlier work. For orientation: In SPR one partner is held on a chip, and binding of the other changes the refractive index at the surface.
For the next assay, the system named is HepG2 cells. As to the kind of experiment: Fluorescent LDL uptake cell based assay in PCSK9-treated HepG2 cells. Also noted: species or system human. The following applies: for Times more active than Pep2-8 in restoring LDL uptake: compared with 50 µM Pep2-8; for LDL-uptake restored (versus untreated cells): then LDL-DyLight 550 2 h, PCSK9 alone reduced uptake by 32.7%, mean of three independent experiments. How it is done:
(§1) The HepG2 cell line was cultured in DMEM high glucose with stable L-glutamine supplemented with 10% FBS, 100 U/mL penicillin, 100.0 µg/mL streptomycin and incubated at 37 °C under 5% CO2 atmosphere. HepG2 cells were used for no more than 20 passages after thawing, because the increase of the number of passages may change the cell characteristics and impair assay results.
HepG2 cells (3.0 × 10^4/well) were seeded in black 96-well plates and kept in complete growth medium for 2 d before treatment. The third day, they were treated with 4.0 μg/mL PCSK9 and 4.0 μg/mL PCSK9 + peptides (0.5-50.0 µM), and vehicle (H2O) for 2 h with at 37 °C under 5% CO2 atmosphere. At the end of the treatments, the culture medium was replaced with 50.0 μl/well LDL-DyLight™ 550 working solution (Cayman Chemical Company, Ann Arbor, MI, US). The cells were additionally incubated for 2 h at 37 °C and then the culture medium was aspirated and replaced with PBS (100.0 μl/well). The degree of LDL uptake was measured using the Synergy H1 fluorescent plate reader from Biotek (excitation and emission wavelengths 540 and 570 nm, respectively).

The target of assay [1] is T1, PCSK9/LDLR PPI (His-tagged PCSK9, recombinant LDLR-AB domain) (Homo sapiens, UniProt Q8NBP7).
T1 construct: purchased CycLex Co., Nagano, Japan
T1 sequence (Q8NBP7 153-692): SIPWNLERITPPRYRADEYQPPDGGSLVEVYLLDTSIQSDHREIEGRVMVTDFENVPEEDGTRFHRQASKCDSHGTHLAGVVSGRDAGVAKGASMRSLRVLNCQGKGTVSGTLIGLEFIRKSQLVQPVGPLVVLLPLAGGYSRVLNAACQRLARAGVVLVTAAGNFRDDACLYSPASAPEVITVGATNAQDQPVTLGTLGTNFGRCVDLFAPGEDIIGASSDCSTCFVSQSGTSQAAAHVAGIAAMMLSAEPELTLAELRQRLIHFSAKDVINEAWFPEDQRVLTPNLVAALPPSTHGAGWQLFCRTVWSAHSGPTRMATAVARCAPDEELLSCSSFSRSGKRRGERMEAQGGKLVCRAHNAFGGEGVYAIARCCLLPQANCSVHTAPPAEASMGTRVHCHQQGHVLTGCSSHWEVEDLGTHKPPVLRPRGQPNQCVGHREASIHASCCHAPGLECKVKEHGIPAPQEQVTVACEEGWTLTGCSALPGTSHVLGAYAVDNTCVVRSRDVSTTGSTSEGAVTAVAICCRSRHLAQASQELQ
T1 sequence (Q8NBP7 31-152 partner limits assumed): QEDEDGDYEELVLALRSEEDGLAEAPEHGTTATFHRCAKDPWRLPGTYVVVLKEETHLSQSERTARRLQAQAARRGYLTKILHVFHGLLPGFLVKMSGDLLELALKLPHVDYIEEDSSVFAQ
In words: In vitro PCSK9-LDLR binding assay (CycLex). The following applies: peptide 100 µM; absorbance 450 nm; three independent experiments in duplicate.
Description: Biochemical experiments, based on a PCSK9-LDLR binding assay, were performed in order to compare the ability of each derivative to impair the PPI between PCSK9 and LDLR. […] Initially, in agreement with recently published conditions[27], a preliminary screening was performed at the fixed concentration of 100 µM.
The absorbance at 450 nm was measured using the Synergy H1 fluorescent plate reader (Biotek, Bad Friedrichshall, Germany).

In assay [2] the test system is LDLR protein level on HepG2 cell surface. As to the kind of experiment: In cell western (ICW) assay of LDLR protein level on HepG2 cell surface in presence of PCSK9. It counts as cell-based, human. To be noted: PCSK9 alone decreased LDLR by 37.62%, mean of three independent experiments. How it is done: This reliable technique was used to investigate the effects of the mutated peptides on the modulation of the LDLR protein levels localized on the HepG2 cell surface. Taking this into consideration, to evaluate only the LDLR surface levels no permeabilization step was included in the applied procedure.
as §1
A total of 3.0 × 10^4 HepG2 cells/well were seeded in 96-well plates, respectively. The following day, cells were washed with PBS and then starved overnight (O/N) in DMEM without FBS.
Treated HepG2 cells were fixed in 4% paraformaldehyde for 20 min at room temperature (RT). Cells were washed 5 times with 100.0 µL of PBS/well (each wash was for 5 min at RT) and the endogenous peroxides activity was quenched adding 3% H2O2 in PBS for 20 min at RT. Non-specific sites were blocked with 100.0 µL/well of 5% BSA in PBS for 1.5 h at RT. LDLR primary antibody solution (1:3000 in 5% BSA in PBS, 25 µL/well) was incubated O/N at 4 °C. Subsequently, the primary antibody solution was discarded and each sample was washed 5 times with 100.0 µL/well of PBS (each wash was for 5 min at RT). Goat anti-rabbit Ig-HRP secondary antibody solution (1:6000 in 5% BSA in PBS, 50.0 µL/well) was added and incubated for 1 h at RT. The secondary antibody solution was washed 5 times with 100.0 µL/well of PBS (each wash for 5 min at RT). Freshly prepared TMB substrate (100.0 µL/well), was added and the plate was incubated at room temperature (RT) until desired color was developed. The reaction was then stopped with 2 M H2SO4 and the absorbance at 450 nm was measured using the Synergy H1 fluorescent plate reader from Biotek. Cells were stained by adding 1 × Janus green stain, incubating for 5 min at RT. The dye was removed and the sample washed 5 times with water. Afterward 0.1 mL 0.5 M HCl per well were added and incubated for 10 min. After 10 sec shaking, the OD at 595 nm was measured using the Synergy H1 fluorescent plate reader from Biotek.

Assay [3] concerns cell surface LDLR, HepG2 cells. To be noted: cited from earlier work. The procedure: It is useful to underline, that in our case the cells were treated with a lower PCSK9 concentration (4 μg/mL) and for a shorter time (2 h) in respect to the conditions applied by Zhang and co-w ... || In a recent study, Zhang and co-workers[18] have developed new antagonists. […] In particular, in presence of PCSK9, Fusion 1 peptid ...

Another assay deals with PCSK9/LDLR PPI. The following applies: read-out: IC50 of PCSK9/LDLR PPI inhibition; cited from earlier work. The source says: Recently, innovative technological solutions for controlling peptide metabolism and advanced administration strategies[14]–[16] have renewed the interest for novel inhibitory peptides. […] Another study, carried out by us, has identified two peptides able to inhibit the PCSK9/LDLR PPI[11]: they derive from the hydrolysis of lupin protein and have the following sequences, […] (P5) and […] (T9).

Assay [4] concerns the target T2, recombinant His-tagged PCSK9 protein (proprotein convertase subtilisin/kexin type 9) (UniProt Q8NBP7 31-692).
T2 construct: Proprotein convertase subtilisin/kexin type 9 (PCSK9), recombinant, of the CycLex kit; the functional rows use this molecule; also called PCSK9-WT
As to the kind of experiment: ELISA; CycLex in vitro PCSK9-LDLR binding assay (colorimetric semi-quantitative solid phase binding assay); wells coated with recombinant LDLR-AB domain; His-tagged PCSK9 added with peptide (1.0-300.0 uM; first screen at 100 uM); bound His-tagged PCSK9 read as absorbance at 450 nm; competition. The following applies: both partners purified. In general terms: An ELISA detects its analyte on a solid surface through an enzyme-linked reagent.

[5] abbreviates: peptide 0.5 µM + 4.0 µg/mL PCSK9, 2 h.
[6] abbreviates: peptide 1.0 µM + 4.0 µg/mL PCSK9, 2 h.
The mark [7] stands for this setting: peptide 0.5 µM + 4 µg/mL PCSK9, 2 h.
The mark [8] stands for this setting: peptide 1 µM + 4 µg/mL PCSK9, 2 h.

T2 sequence (Q8NBP7 31-692): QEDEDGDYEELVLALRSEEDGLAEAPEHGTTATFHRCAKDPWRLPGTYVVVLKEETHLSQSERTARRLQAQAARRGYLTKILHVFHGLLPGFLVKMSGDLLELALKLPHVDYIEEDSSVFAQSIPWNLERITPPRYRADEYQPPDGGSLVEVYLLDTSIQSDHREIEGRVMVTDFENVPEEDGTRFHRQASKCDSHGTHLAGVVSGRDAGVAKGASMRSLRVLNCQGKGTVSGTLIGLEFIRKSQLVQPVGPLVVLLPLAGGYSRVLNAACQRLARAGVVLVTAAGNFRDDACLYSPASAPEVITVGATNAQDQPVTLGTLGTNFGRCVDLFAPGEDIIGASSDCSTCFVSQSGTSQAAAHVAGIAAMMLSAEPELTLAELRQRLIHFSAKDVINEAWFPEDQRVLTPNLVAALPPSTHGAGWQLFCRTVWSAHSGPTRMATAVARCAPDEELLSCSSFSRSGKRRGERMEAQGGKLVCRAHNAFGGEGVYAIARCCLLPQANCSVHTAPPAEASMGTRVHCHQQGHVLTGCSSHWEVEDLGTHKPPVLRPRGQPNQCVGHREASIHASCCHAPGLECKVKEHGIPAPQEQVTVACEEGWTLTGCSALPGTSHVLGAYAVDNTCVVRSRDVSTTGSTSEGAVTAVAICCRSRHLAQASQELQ

As for “Ac-TAFTSWEEYLDWV-NH2 [[V2A]Pep2-8, alanine single-point mutant of Pep2-8, computational only]”, the “Affinity on PCSK9” value in the assay with PCSK9 was “low affinity”.

On to Ac-TVFRSWEEYLDYV-NH2 [[T4R,W12Y]Pep2-8], for which the “Times more active than Pep2-8 in restoring LDL uptake” value in the assay on HepG2 cells is roughly 5 fold. Besides, the “LDL-uptake restored (versus untreated cells)” value came out at 81.6% with HepG2 cells (setting [5]); 88.0% in the assay on HepG2 cells (setting [6]); 92.5% with HepG2 cells (peptide 10.0 µM + 4.0 µg/mL PCSK9, 2 h). Also, in assay [1], the “Impairment of PCSK9-LDLR binding versus control” value is recorded as −93.0%. Further, the “LDLR protein level restored (versus control cells)” value in assay [2] (setting [7]) turned out to be 68.1%; in assay [2] (setting [8]), 75.3%; in assay [2] (peptide 10.0 µM + 4 µg/mL PCSK9, 2 h), 88.3%.

For the molecule Ac-TVFTSWEEALDWV-NH2 [[Y9A]Pep2-8], the “Times more active than Pep2-8 in restoring LDL uptake” value in the assay on HepG2 cells was “about 50 fold”. Moreover, the “LDL-uptake restored (versus untreated cells)” value came out at 83.4% in the assay with HepG2 cells (setting [5]) and 99.0% in the assay on HepG2 cells (setting [6]). The “Impairment of PCSK9-LDLR binding versus control” value in assay [1] was −69.8%. Besides, the results for the “LDLR protein level restored (versus control cells)” value in assay [2] (setting [7]) and in assay [2] (setting [8]) were 81.9% and 89.9%, respectively.

“Ac-TVFTSWEEYLDWV-NH 2 [Pep2-8, reference compound]”: in the assay on HepG2 cells (peptide 50 µM + 4.0 µg/mL PCSK9, 2 h), the “LDL-uptake restored (versus untreated cells)” value was found to be 98.9%. For the same molecule, the “Surface LDLR levels renewed” value in assay [3] (FACS, 50 μM peptide, 4 h co-incubation with 15 μg/mL PCSK9, ref Zhang and co-workers) is recorded as “about 70%”. Further, in assay [2] (peptide 50 µM + 4 µg/mL PCSK9, 2 h), the “LDLR protein level restored (versus control cells)” value was 83.36% and 83.4%.

Regarding LILPKHSDAD [Peptide P5], the IC50 in the assay with PCSK9/LDLR PPI is 1.6 µM.

On to “TVFTSWEEYLDWV-GSC- CRLPWNLQRIGLPG [Fusion 1 peptide]”, for which the “LDLR restored in presence of PCSK9” value in assay [3] (HepG2 cells, 5.0 µM (tested 0.1 to 5.0 µM)) is given as 90%. The “Fold more potent than reference peptide Pep2-8 in preventing PCSK9-mediated cell surface LDLR degradation” value in assay [3] (HepG2 cells) is reported as “about 20 fold”.

B1: [Y9A]Pep2-8 (Ac-TVFTSWEEALDWV-NH2) (peptide)
peptide: Ac-TVFTSWEEALDWV-NH2
notes: analog of Pep2-8 with Y9A, designed by computation; source: synthetic peptide (bought: PRIMM Biotech / GenScript, >95% purity)
Regarding B1, in assay [4], the IC50 came to 27.1 µM and the “percent change of PCSK9-LDLR binding at 100 µM peptide versus the control” value is -69.8%.

B2: [T4R,W12Y]Pep2-8 (Ac-TVFRSWEEYLDYV-NH2) (peptide)
peptide: Ac-TVFRSWEEYLDYV-NH2
notes: analog of Pep2-8 with T4R and W12Y, designed by computation; source: synthetic peptide (bought: PRIMM Biotech / GenScript, >95% purity)
Regarding B2, in assay [4], the IC50 stood at 14.5 µM and the “percent change of PCSK9-LDLR binding at 100 µM peptide versus the control” value is -93%.
